Article PMC9333195, “Discovery of 2-Phenylquinoline-4-Carboxylic Acid Derivatives as Novel Histone Deacetylase Inhibitors” (Frontiers in Chemistry, 2022)

Experiments:
A2780 = assay: CCK-8 antiproliferative assay, A2780; conditions: Homo sapiens, A2780, 72 h, read-out: Antiproliferative IC50 A2780
Protocol: (§1) The proliferation of cancer cells was tested by CCK-8 assay. Briefly, cells were seeded in a 96-well plate with about 5 × 10^3 cells in each well. […] The light absorbance at 450 nm was measured by using an Opsys microplate reader (Dynex Technologies, Chantilly, VA, United States).

U937 = assay: CCK-8 antiproliferative assay, U937; conditions: Homo sapiens, U-937, 72 h, read-out: Antiproliferative IC50 U937
Protocol: (§2) The proliferation of cancer cells was tested by CCK-8 assay. Briefly, cells were seeded in a 96-well plate with about 5 × 10^3 cells in each well. In the K652 cell screening, cells were treated with 2.0 μM of tested compounds. […] The light absorbance at 450 nm was measured by using an Opsys microplate reader (Dynex Technologies, Chantilly, VA, United States).

HDAC6 = target: T1, HDAC6 (Homo sapiens, UniProt Q9UBN7); assay: In vitro HDAC inhibitory assay, recombinant HDAC6
T1 sequence (Q9UBN7 1-1215): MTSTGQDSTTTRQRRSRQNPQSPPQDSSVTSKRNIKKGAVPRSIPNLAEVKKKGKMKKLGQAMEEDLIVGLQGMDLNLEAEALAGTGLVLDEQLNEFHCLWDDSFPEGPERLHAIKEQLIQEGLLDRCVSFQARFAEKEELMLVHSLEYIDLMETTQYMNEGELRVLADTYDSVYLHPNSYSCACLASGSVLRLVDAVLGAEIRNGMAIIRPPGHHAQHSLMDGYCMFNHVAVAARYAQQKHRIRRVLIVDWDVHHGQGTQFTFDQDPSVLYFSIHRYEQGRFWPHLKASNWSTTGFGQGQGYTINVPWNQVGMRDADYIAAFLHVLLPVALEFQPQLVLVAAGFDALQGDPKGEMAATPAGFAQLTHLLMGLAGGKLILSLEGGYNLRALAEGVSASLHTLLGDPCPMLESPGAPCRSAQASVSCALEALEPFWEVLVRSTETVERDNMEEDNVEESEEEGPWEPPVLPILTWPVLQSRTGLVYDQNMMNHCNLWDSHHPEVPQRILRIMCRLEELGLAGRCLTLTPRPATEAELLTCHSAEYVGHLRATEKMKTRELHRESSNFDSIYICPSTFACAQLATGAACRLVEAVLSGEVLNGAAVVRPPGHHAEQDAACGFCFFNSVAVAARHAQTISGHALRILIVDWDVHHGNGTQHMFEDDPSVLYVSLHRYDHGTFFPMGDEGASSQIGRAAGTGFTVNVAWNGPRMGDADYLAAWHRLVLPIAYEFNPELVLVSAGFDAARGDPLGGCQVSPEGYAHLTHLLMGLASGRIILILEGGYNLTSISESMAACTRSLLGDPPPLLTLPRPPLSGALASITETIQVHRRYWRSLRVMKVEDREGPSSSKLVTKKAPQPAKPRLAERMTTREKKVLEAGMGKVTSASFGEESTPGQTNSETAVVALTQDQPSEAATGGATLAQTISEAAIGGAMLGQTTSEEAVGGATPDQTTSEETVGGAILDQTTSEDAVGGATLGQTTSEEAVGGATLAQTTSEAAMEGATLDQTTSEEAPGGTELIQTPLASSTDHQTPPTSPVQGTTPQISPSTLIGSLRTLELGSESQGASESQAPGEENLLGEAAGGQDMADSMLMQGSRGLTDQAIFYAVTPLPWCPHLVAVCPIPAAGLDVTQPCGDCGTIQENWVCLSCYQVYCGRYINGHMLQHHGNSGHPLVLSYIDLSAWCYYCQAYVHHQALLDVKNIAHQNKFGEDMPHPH

HepG2 = assay: CCK-8 antiproliferative assay, HepG2; conditions: Homo sapiens, HepG2, 72 h, read-out: Antiproliferative IC50 HepG2
Protocol: as §2

MDA-MB-468 = assay: CCK-8 antiproliferative assay, MDA-MB-468; conditions: Homo sapiens, MDA-MB-468, 72 h, read-out: Antiproliferative IC50 MDA-MB-468
Protocol: as §1

HDAC3 = HDAC3 (Homo sapiens, UniProt O15379); assay: In vitro HDAC inhibitory assay, recombinant HDAC3
U266 = assay: CCK-8 antiproliferative assay, U266; conditions: Homo sapiens, U-266, 72 h, read-out: Antiproliferative IC50 U266
Protocol: as §1

K562 cells [1] = assay: CCK-8 antiproliferative assay, K562; conditions: Homo sapiens; for IC50: K562, 72 h, read-out: Antiproliferative IC50 K562; for inhibition at 2 µM: K562, read-out: K562 percentage inhibitory rate
Protocol: as §2

HDAC1 = HDAC1 (Homo sapiens, UniProt Q13547); assay: In vitro HDAC inhibitory assay, recombinant HDAC1
A549 = assay: CCK-8 antiproliferative assay, A549; conditions: Homo sapiens, A549, 72 h, read-out: Antiproliferative IC50 A549
Protocol: as §1

Fadu = assay: CCK-8 antiproliferative assay, Fadu; conditions: Homo sapiens, 72 h, read-out: Antiproliferative IC50 Fadu
Protocol: as §2

MDA-MB-231 = assay: CCK-8 antiproliferative assay, MDA-MB-231; conditions: Homo sapiens, MDA-MB-231, 72 h, read-out: Antiproliferative IC50 MDA-MB-231
Protocol: as §2

MCF-7 = assay: CCK-8 antiproliferative assay, MCF-7; conditions: Homo sapiens, MCF7, 72 h, read-out: Antiproliferative IC50 MCF-7
Protocol: as §1

HDAC2 = HDAC2 (Homo sapiens, UniProt Q92769); assay: In vitro HDAC inhibitory assay, recombinant HDAC2
[2] = system: Hela nucleus extract containing a mixture of HDAC isoforms; assay: In vitro HDAC inhibitory assay, HeLa cell nuclear extract screening at 2 µM; format: biochemical; conditions: 2.0 µM compound, mean of three experiments
Protocol: The HDAC enzyme inhibitory activities of synthesized compounds were evaluated against Hela nucleus extract containing a mixture of HDAC isoforms. Percentage inhibitory rate (PIR) was calculated to determine the activity of tested compounds (Table 1).
All HDAC enzymes were purchased from BPS Bioscience. […] The reaction was terminated by adding 100 μl of imaging agent containing trypsin and trichostatin A (TSA). After standing for 20 min, the fluorescence intensity was measured at the excitation and emission wavelengths of 360 and 460 nm with a microplate reader. The inhibition rate was calculated from the fluorescence intensity readings of the test wells relative to the control wells, and the IC50 curve and value were determined by GraphPad Prism 6.0 software.

K562 cells [3] = assay: Cell apoptosis analysis by flow cytometry (Annexin V-BV421 / 7-AAD); conditions: 24 h, control 1.14%
Protocol: Cells were incubated with Annexin V-BV421(Becton Dickinson, United States) and 7-AAD (Becton Dickinson, United States) double labeling for 30 min in the dark at room temperature and measured by flow cytometry (FACSAriaIII, Becton Dickinson, United States). The data was analyzed by using Flowjo-V10 software.

K562 cells [4] = assay: Cell cycle analysis by flow cytometry (PI staining); format: cell-based; conditions: 24 h; for G2/M phase ratio of K562 cells: control 3.44%, third value in Figure 3
Protocol: Deregulation of the cell cycle divided into G0/G1 phase, S phase, and G2/M phase is one of the most frequent alterations during cancer development. Thus, the cell cycle analysis is usually performed in the anticancer evaluation.
After treatment, cells were collected and fixed with 70% pre-cold ethanol in PBS and stored at −20°C overnight. […] Finally, DNA content was measured by flow cytometry (FACSAriaIII, Becton Dickinson, United States). The data was analyzed and fitted by ModFit software.

HDAC2, sequence (Q92769 whole entry, canonical isoform): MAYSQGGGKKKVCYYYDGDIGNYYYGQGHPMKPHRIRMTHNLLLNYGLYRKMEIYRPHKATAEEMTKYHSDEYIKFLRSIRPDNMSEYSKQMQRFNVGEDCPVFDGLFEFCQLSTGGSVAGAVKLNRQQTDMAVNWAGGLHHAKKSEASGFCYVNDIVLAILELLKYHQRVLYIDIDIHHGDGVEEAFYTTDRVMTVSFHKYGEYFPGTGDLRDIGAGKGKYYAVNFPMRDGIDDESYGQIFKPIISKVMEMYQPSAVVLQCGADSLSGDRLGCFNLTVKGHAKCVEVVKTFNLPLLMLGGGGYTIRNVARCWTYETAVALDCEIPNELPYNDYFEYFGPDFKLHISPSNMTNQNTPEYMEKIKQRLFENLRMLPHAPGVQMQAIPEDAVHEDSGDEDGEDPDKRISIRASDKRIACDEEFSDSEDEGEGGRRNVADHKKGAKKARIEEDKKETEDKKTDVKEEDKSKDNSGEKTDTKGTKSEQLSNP
HDAC3, sequence (O15379 whole entry): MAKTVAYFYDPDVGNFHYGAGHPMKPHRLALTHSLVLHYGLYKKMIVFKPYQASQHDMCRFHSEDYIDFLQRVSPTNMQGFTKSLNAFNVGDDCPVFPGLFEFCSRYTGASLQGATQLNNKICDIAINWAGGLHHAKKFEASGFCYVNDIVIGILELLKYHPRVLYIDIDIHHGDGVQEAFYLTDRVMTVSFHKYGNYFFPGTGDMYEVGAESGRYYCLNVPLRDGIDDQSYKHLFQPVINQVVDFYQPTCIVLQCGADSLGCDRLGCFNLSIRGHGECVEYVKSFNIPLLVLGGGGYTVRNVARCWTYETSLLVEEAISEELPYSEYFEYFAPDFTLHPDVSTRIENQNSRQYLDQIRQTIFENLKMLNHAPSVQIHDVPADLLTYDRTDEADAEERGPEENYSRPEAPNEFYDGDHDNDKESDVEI
HDAC3, sequence (Q9Y618 395-489 partner limits assumed): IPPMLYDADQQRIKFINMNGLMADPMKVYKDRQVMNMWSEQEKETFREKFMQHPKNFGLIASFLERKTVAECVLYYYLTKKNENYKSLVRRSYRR
HDAC1, sequence (Q13547 whole entry): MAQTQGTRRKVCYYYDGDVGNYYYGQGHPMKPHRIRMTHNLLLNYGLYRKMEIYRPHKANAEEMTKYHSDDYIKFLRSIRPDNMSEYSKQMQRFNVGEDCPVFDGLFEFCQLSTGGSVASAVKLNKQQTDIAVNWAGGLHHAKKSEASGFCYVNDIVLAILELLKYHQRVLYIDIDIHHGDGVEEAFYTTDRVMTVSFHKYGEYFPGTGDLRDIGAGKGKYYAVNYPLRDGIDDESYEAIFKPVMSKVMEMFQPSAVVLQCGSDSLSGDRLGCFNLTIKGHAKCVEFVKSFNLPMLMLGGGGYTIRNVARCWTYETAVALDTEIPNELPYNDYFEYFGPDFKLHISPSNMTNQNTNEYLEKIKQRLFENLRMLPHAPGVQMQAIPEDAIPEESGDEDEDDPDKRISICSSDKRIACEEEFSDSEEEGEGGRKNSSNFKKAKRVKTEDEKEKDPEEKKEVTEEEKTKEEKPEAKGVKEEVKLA

| SMILES | IC50 (A2780) [µM] | IC50 (U937) [µM] | IC50 (HDAC6) [µM] | melting point [°C] | IC50 (HepG2) [µM] | IC50 (MDA-MB-468) [µM] | IC50 (HDAC3) [µM] | IC50 (U266) [µM] | IC50 (K562 cells [1]) [µM] | inhibition at 2 µM (K562 cells [1]) [%] | IC50 (HDAC1) [µM] | IC50 (A549) [µM] | IC50 (Fadu) [µM] | IC50 (MDA-MB-231) [µM] | IC50 (MCF-7) [µM] | IC50 (HDAC2) [µM] | HDACs percentage inhibitory rate (PIR) [2] [%] | also measured |
| --- | --- | --- | --- | --- | --- | --- | --- | --- | --- | --- | --- | --- | --- | --- | --- | --- | --- | --- |
| CCCCNNC(=O)c1ccc(N2CCN(C(=O)c3cc(-c4ccc(-c5ccccc5)cc4)nc4ccccc34)CC2)cc1 [Compound D30, 4-(4-(2-([1,1′-Biphenyl]-4-yl)Quinoline-4-Carbonyl)Piperazin-1-yl)-N′-Butylbenzohydrazide] | > 50 | 5.87 ± 0.24 | > 1000 | 225.3 to 227.3 | > 50 | > 50 | 0.1 ± 0.003 | 3.68 ± 0.16 | 7.66 ± 0.25 | 65.8 ± 2.95 | 1.43 ± 0.02 | > 50 | > 50 | > 50 | 18.8 ± 1.22 | 8.13 ± 0.26 | 69.35 ± 3.44 |  |
| CCCNNC(=O)c1ccc(N2CCN(C(=O)c3cc(-c4ccc(-c5ccccc5)cc4)nc4ccccc34)CC2)cc1 [Compound D29, 4-(4-(2-([1,1′-Biphenyl]-4-yl)Quinoline-4-Carbonyl)Piperazin-1-yl)-N′-Propylbenzohydrazide] | > 50 | 4.22 ± 0.08 | > 1000 | 223.3 to 224.2 | > 50 | > 50 | 0.477 ± 0.01 | 2.87 ± 0.11 | 5.27 ± 0.14 | 62.4 ± 3.87 | 32.6 ± 1.97 | > 50 | > 50 | > 50 | 12.6 ± 0.97 | 184 ± 4.32 | 62.14 ± 2.11 |  |
| O=C(NO)c1ccc(N2CCN(C(=O)c3cc(-c4ccc(-c5ccccc5)cc4)nc4ccccc34)CC2)cc1 [Compound D28, 4-(4-(2-([1,1′-Biphenyl]-4-yl)Quinoline-4-Carbonyl)Piperazin-1-yl)-N-Hydroxybenzamide] | 3.86 ± 0.29 | 1.11 ± 0.03 | > 1000 |  | 2.16 ± 0.13 | 2.89 ± 0.13 | 24.5 ± 1.24 | 1.08 ± 0.02 | 1.02 ± 0.01 | 71.9 ± 2.32 |  | 2.83 ± 0.17 | 3.22 ± 0.14 | 4.15 ± 0.22 | 5.66 ± 0.26 | > 1000 | 68.00 ± 2.49 | apoptotic cell proportion (apoptotic rate) (K562 cells [3]; K562, 1 μM): 10.10%; apoptotic cell proportion (apoptotic rate) (K562 cells [3]; K562, 2 μM): 15.53%; apoptotic cell proportion (apoptotic rate) (K562 cells [3]; K562, 4 μM): 27.92%; G2/M phase ratio of K562 cells (K562 cells [4]; 1 μM): 5.95%; G2/M phase ratio of K562 cells (K562 cells [4]; 2 μM): 32.57%; phase of induced cell cycle arrest (K562 cells [4]; K562 cells, 1 and 2 µM): G2/M phase |
